US20110105436A1, “HETEROARYL COMPOUNDS, COMPOSITIONS, AND METHODS OF USE IN CANCER TREATMENT” (AUCKLAND UNISERVICES LIMITED, priority 2008, published 2011)

Columns and labels:
Type in all cases: cell-based
[1] = tested on: RCC4, RCC4/VHL, SN12C and SN12C-VHL shRNA cells; experiment: Acidic vesicle organelles with acridine orange (FACS); details: for effect of inhibitor on autolysosomal acidification induced by STF-62247: 2 mM 3-MA or 1 μg/ml Brefeldin A with 1.25 μM STF-62247, 20 hrs; for acridine orange staining / amount of AVOs: 1.25 μM, VHL-deficient versus wild-type VHL cells
Procedure: Quantification of Acidic Vesicle Organelles with Acridine Orange. In acridine orange-stained cells, the cytoplasm and nucleus are bright green and dim red, whereas acidic compartments are bright red. The intensity of the red fluorescence is proportional to the degree of acidity. Following 20 hours of treatment with STF-62247 or analogs, cells were stained with 1 μg/ml of acridine orange for 15 min. Cells were trypsinized and then analyzed by flow cytometry using FACScan cytometer and CellQuest software.
(§1) A. VHL-deficient RCC4 and wild-type VHL were incubated in presence of 10 μM LY294002, or 1 μg/mlBrefeldin A with 1.25 μM of STF-62247 for 20 hrs and the presence of vacuoles was examined under light microscopy. B,C. LC3 processing was evaluated by Western blot after the treatment with Brefeldin A or LY294002 in presence or absence of STF-62247 as described above. Tubulin was used as loading control. D. Cells were treated with 1.25 μM of STF-62247 with or without 2 mM of 3-MA, 1 μg/ml of Brefeldin A for 20 hrs. For the last 15 min, acidic components were stained with 1 μg/ml of acridine orange and visualized under fluorescence microscope. […] F. Quantification of the FACS analysis. The data are calculated as the average of three different experiments as relative units of treated over untreated cells. The error bars are represented as the standard error of the mean (SEM).
(§2) A. RCC4 and RCC4/VHL were treated with 1.25 μM of each 19 analogs for 20 hours and the presence of vacuoles was examined under light microscopy. B. Western blot for LC3 after treatment with each compound. Tubulin was used as loading control. Ratio is the relative from the IC50 in RCC4/VHL cells/IC50 in RCC4 cells. C. Acidic vesicle organelles (AVO) measured by FACS analysis in cells treated with 1.25 μM of STF-62247 or with compounds 21, 15, 25, 47, and 53 and stained with acridine orange.

LC3 = LC3 processing by Western blot and immunostaining; details: for effect of inhibitor on vacuole formation and LC3-II induced by STF-62247: co-treatment with 1.25 μM STF-62247, 20 hrs, VHL-deficient RCC cells; for toxicity, vacuole formation and LC3-lipidated form (autophagy) of analogs: 1.25 μM, 20 hours, FIG. 5A-B
Procedure: (§3) Western blot analysis. After treatments, cells were lysed in urea buffer (9M urea, 75 mM Tris (pH 7.5), 150 mM b-mercaptoethanol), placed on ice for 10 minutes and sonicated briefly (15 seconds). Extracts were centrifugated at 8,000×g for 10 minutes to eliminate insoluble material. Lysates were quantitated using Bio-Rad protein Assay (Bio-Rad Laboratories) and 20-30 μg of proteins were separated on a 7.5% or 15% bis-acrylamide gels and then transferred onto PVDF membranes. Proteins were visualized using HIF-2α (Novus Biological), HIF-1α, pVHL and BiP (BD Biosciences), LC3 (MBL), Atg5, or α-tubulin antibodies.
Immunofluorescence staining. Cells were seeded on glass coverslips and at subconfluence, STF-62247 was added at 1.25 μM for RCC4 and 3.75 μM for SN12C. After 20 hours, cells were fixed in 3.7% formaldehyde for 10 min at room temperature and washed in PBS. Then cells were permeabilized in 0.2% Triton X-100 for 5 min at room temperature and washed in PBS. The coverslips were incubated with primary antibody LC3 diluted 1:500 in PBS containing 0.2% BSA for 1 hour at room temperature. Cells were washed three times in PBS-BSA and the bound primary antibody was detected using a fluorescein-conjugated secondary antibody (ALEXA) diluted 1:500 in PBS-BSA and incubated for 1 hour. Coverslips were washed and mounted in mounting medium from Vector Laboratories according to the manufacturer's instructions. Cells were examined with a confocal microscope
A. Phase contrast pictures of VHL-deficient RCC4 and SN12C-VHL shRNA cells and VHL-positive cells RCC4 and SN12C after 20 hrs of 1.25 μM STF-62247. B. Immunostaining for LC3 following STF-62247 treatment at 1.25 μM for 20 hrs with or without 2 mM of 3-MA in RCC4 with and without VHL cells. After treatment, cells were fixed, permeabilized and processed for the detection of punctuate staining by indirect immunofluorescence. C. Autophagic vacuoles stained with monodansylcadaverine (MDC). After STF-62247 treatment in the same conditions, MDC was added for the last 10 minutes. Cells were fixed, washed with PBS and observed directly under microscope. D. Western blot for LC3 in RCC4, RCC4/VHL, SN12C, and SN12C-VHL shRNA cells after STF-62247 treatment with or without 3-MA. Nutrient starvation (EBSS) is used as positive control. E. Western blot for LC3 in RCC4 and RCC4/VHL with different concentrations of STF-62247. Tubulin was used as loading control. F. Cell viability assay in VHL-deficient RCC4 and wild-type VHL cells treated with 1 mM of 3-MA, 1.25 μM of STF-62247 alone or in combination for 24 hrs. Viability is measured by trypan blue exclusion assay and is represented by the average of three different experiments in duplicate as the percent of treated on untreated cells. The error bars are represented as SEM.
as §1
B,C. LC3 processing was evaluated by Western blot after the treatment with U0126 or tunicamycin in presence or absence of STF-62247 as described above. Tubulin was used as loading control.

[2] = tested on: VHL-deficient RCC4 and wild-type VHL cells; experiment: Cell viability by trypan blue exclusion; details: 1 mM 3-MA, 1.25 μM STF-62247, 24 hours, FIG. 2F
Procedure: (§4) Cell Viability and XTT assays. For cell viability, 100,000 cells were plated in a 12-well plate. The following day, 1.25 μM STF-62247 was added in the presence or absence of 1 mM 3-MA for 24 hours at 37° C. Cells were trypsinized and counted by trypan blue exclusion. For XTT assays, 5000 RCC4 with and without VHL cells or 2,500 SN12C with and without VHL shRNA cells were plated in 96-well plates. The following day, vehicle (DMSO), STF-62247 or each of 19 analogs were added to media by serial dilution. Four days later, the media was aspirated and XTT solution containing 0.3 mg/ml of XTT (Sigma Chemical Co) in Phenol Red-free media, 20% FCS and 2.65 mg/ml N-methyl dibenzopyrazine methyl sulfate (PMS) was added to the cells and incubated at 37° C. for 1-2 hours. Metabolism of XTT was quantified by measuring the absorbance at 450 nm on a plate reader.
A. Phase contrast pictures of VHL-deficient RCC4 and SN12C-VHL shRNA cells and VHL-positive cells RCC4 and SN12C after 20 hrs of 1.25 μM STF-62247. B. Immunostaining for LC3 following STF-62247 treatment at 1.25 μM for 20 hrs with or without 2 mM of 3-MA in RCC4 with and without VHL cells. […] Viability is measured by trypan blue exclusion assay and is represented by the average of three different experiments in duplicate as the percent of treated on untreated cells. […]

RCC4 cells = experiment: XTT assay in VHL-deficient RCC4 cells; details: Homo sapiens, 96 h; Table 1; XTT assay, VHL-deficient RCC4 cells, four days
Procedure, shortened: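 RCC4 cells with and without VHL seeded at 5000/well, then exposed next day to serially diluted compound (DMSO vehicle) for four days. Viability read by XTT (0.3 mg/ml) with PMS, 1-2 h at 37° C, absorbance at 450 nm.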

RCC4/VHL cells = experiment: XTT assay, RCC4/VHL versus RCC4 cells (selectivity ratio); details: for Ratio: Table 1, selectivity ratio, IC50 in RCC4/VHL cells/IC50 in RCC4 cells
Procedure: as §4, §2

BiP (Grp78) = experiment: Western blot for BiP (ER stress); details: 2 μg/ml tunicamycin, FIG. 9C
Procedure: as §3
B,C. LC3 processing was evaluated by Western blot after the treatment with U0126 or tunicamycin in presence or absence of STF-62247 as described above. Tubulin was used as loading control. D. FACS analysis to measure the acidic vesicle organelles after staining with acridine orange in SN12C and SN12C-VHL shRNA following treatment with STF-62247 for 24 hours. E. AVO quantification from the FACS analysis in A. F. Autophagic vacuoles stained with MDC. After STF-62247 treatment with or without 3-MA, NH4Cl, MDC was added the last 10 minutes. Then, cells were fixed, washed with PBS and observed directly under microscope.

Compound | effect of inhibitor on autolysosomal acidification induced by STF-62247 [1] | effect of inhibitor on vacuole formation and LC3-II induced by STF-62247 (LC3) | viability of VHL-deficient cells treated with STF-62247 in presence of inhibitor [2] | IC50 (RCC4 cells) | acridine orange staining / amount of AVOs [1] | Ratio (RCC4/VHL cells) | toxicity, vacuole formation and LC3-lipidated form (autophagy) of analogs (LC3) | IC50 ratio (wild-type VHL/VHL-deficient cells) (RCC4/VHL cells; structure-activity text on Tables 1 and 2) | BiP (Grp78), marker of ER stress (BiP (Grp78))
C[C@H]1CCC/C=C/[C@@H]2C[C@H](O)C[C@H]2[C@H](O)/C=C/C(=O)O1 [Brefeldin A, reference compound] | resulted in a decrease in autolysosomal acidification | abolished the formation of autophagic vacuoles and LC3-II |  |  |  |  |  |  | 
Cn1cnc(N)c2ncnc1-2 [Compound 3-MA, 3-methyladenine, reference compound] | resulted in a decrease in autolysosomal acidification | abrogated | partially restored |  |  |  |  |  | 
Oc1cccc(Nc2nc(-c3ccncc3)cs2)c1 [Compound 13, 3-{[4-(4-Pyridinyl)-1,3-thiazol-2-yl]amino}phenol] |  |  |  | 28.5 µM | not influenced | >3 | no toxicity or autophagy were observed |  | 
COc1cccc(Nc2nc(-c3ccncc3)cs2)c1 [Compound 15, N-(3-Methoxyphenyl)-4-(4-pyridinyl)-1,3-thiazol-2-amine] |  |  |  | 3 µM | consistertly higher in VHL-deficient cells | 17 | induced significant vacuole formation and the LC3-lipidated form |  | 
Cc1ccc(Nc2nc(-c3ccncc3)cs2)cc1 [Compound 21, N-(4-Methylphenyl)-4-(4-pyridinyl)-1,3-thiazol-2-amine] |  |  |  | 2.5 µM | consistertly higher in VHL-deficient cells | 20 | induced significant vacuole formation and the LC3-lipidated form | high ratio | 
Oc1ccc(Nc2nc(-c3ccncc3)cs2)cc1 [Compound 25, 4-{[4-(4-Pyridinyl)-1,3-thiazol-2-yl]amino}phenol] |  |  |  | 5.3 µM | consistertly higher in VHL-deficient cells | 8 | induced significant vacuole formation and the LC3-lipidated form |  | 
Cc1cc(Nc2nc(-c3ccncc3)cs2)ccc1O [Compound 53, 2-Methyl-4-{[4-(4-pyridinyl)-1,3-thiazol-2-yl]amino}phenol] |  |  |  | 70 µM | not influenced | 2.3 | no toxicity or autophagy were observed |  | 
N#CC(=C(/N)Sc1ccccc1N)/C(C#N)=C(\N)Sc1ccccc1N [Compound U0126, reference compound] |  | had little effect on autophagy induced by STF-62247 |  |  |  |  |  |  | 
tunicamycin [reference compound] |  | no vacuole or LC3 processing was observed |  |  |  |  |  |  | induced BiP (Grp78)
